Source: patent publication US11331370B2, “Combination product for the prevention of sexually transmitted infections” (priority 2014, dated 2022)

Key:
HSV-2 G strain [1] = experiment: Dye-uptake PrestoBlue antiviral assay in Vero cells; assay type: cell-based; details: 6 day incubation, combination value based on API with bold font
Method: We previously reported that the combination of ZA and CG results in a potent antiviral synergy against HSV-2. Fernandez-Romero, J. A., et al., Antimicrobial agents and chemotherapy, 2012. 56(1): p. 358-68. […] Briefly, HSV-2 G strain and different concentrations of each compound or their combinations (based on equipotency IC50 ratios) were pre-incubated at 37° C. and added to Vero cells followed by a 6 day incubation at 37° C., 5% CO2 and 98% humidity. A dye-uptake PrestoBlue assay was performed to test antiviral activity. Relative fluorescent units (RFU) were measured at 570 nm for excitation and 600 nm for emission. The % of virus replication was calculated using the following formula: % Virus replication=[(O.Dcell control−O.Dcompound)/(O.Dcell control−O.Dvirus control)]*100. IC50 values were calculated using a dose-response-inhibition analysis on GraphPad Prism v 5.0 software. As provided therein, ¶ IC50 or % IC50 reduction values are based on API with bold font; NA=Not applicable.

HIV-192BR014 = experiment: Anti-HIV combination activity in activated PBMCs, p24 ELISA, Chou-Talalay; assay type: cell-based; details: PBMC, HIV-1 92BR014, p24 day 7; combination value refers to the API in bold font (GRFT); read-out: Dm, median-effect dose (IC50)
Method: Briefly, in order to test anti-HIV activity, activated PBMCs were treated with varying equipotent doses (based on IC50 of each API) of GRFT, ZA or GRFT+ZA at 37° C. 1 h prior to exposure to 100 TCID50 of HIV-192BR014 in the presence of the same doses of each compound or combination (triplicates). Medium-treated (virus only) cells were included as a control. Eighteen hours later the cells were washed and plated in the presence of medium with IL-2 (with the only exception of those samples treated with ZA, where ZA was replaced). This step was repeated on day 4 and the supernatants collected on day 7 to measured HIV-1 p24 levels by ELISA. […] Combination indexes (CI) were estimated using the Chou-Talalay method (Chou, T. C. Pharmacological Reviews, 2006, 58(3): p. 621-81) with the Cacusyn for Windows software (Biosoft, Cambridge, United Kingdom). As provided therein, “CI” refers to a quantitative measure of the degree of drug interaction as follows: additive effect (CI=1); synergism (CI <1), or antagonism (CI >1). “Dm” refers to the median-effect dose (IC50); “m” refers to a measurement of the sigmoidicity of the dose-effect curve, and also represents the slope of the median-effect plot; and “r” refers to the linear correlation coefficient of the median-effect plot. […]

HIV-1 = details: p24 ELISA and RT; cited from earlier work
HPV16 PsV = experiment: HPV pseudovirus luciferase assay in HeLa cells; assay type: cell-based
Method: The activity of GRFT against HPV pseudoviruses was also investigated. […] All the non-toxic GRFT concentrations were tested in triplicates. The graphics show the mean±SD.
Medium-treated (virus only) cells were included as a control. […] In order to assay for anti-HPV activity, HeLa cells were treated with varying equipotent doses of GRFT, C or GRFT+C (based on IC50 of each API) at 37° C. and immediately exposed to HPV16 PsV (triplicates). Medium-treated (virus only) cells were included as a control. The luciferase assay was performed 72 h after infection. […] As provided therein, “CI” refers to a quantitative measure of the degree of drug interaction as follows: additive effect (CI=1); synergism (CI <1), or antagonism (CI >1). […]

HPV45 PsV = experiment: HPV pseudovirus luciferase assay in HeLa cells; assay type: cell-based; details: 72 h, FIG. 1C
Method: (§1) FIG. 1 includes logarithmic plots which show the percentage of virus replication in the presence of GRFT (nM). Data in FIG. 1 A and FIG. 1 B confirm that GRFT has potent activity against HIV. […] In FIG. 1A, anti-HIV activity was tested in TZM-bl cells using the MAGI assay (R Begay O, et al. AIDS Research and Human Retroviruses, 2011 Sep. 1; 27(9):1019-24) and the laboratory strains HIV-1MN (X4 virus) and HIV-1ADA-M ([…]). In FIG. 1B, anti-HIV activity was tested in PBMC (Trkola A, et al., J Virol. 1999 November; 73(11):8966-74) using the laboratory strains HIV-1NL4-3. In FIG. 1C, anti-HPV activity was evaluated in HeLa cells using a luciferase reporter gene assay (Buck C B, et al. PLoS Pathog. 2006 Jul. 1; 2(7):e69) and testing the antiviral activity against three different HPV PsV types (16, 18 and 45). In FIGS. 1A, 1B, 1C, IC50 values are depicted as a vertical dotted line with the 95% confidence interval and were calculated using a dose-response-inhibition analysis on GraphPad Prism v 5.0 software. All the non-toxic GRFT concentrations were tested in triplicates and are shown with the mean±SD.
(§2) The activity of GRFT against HPV pseudoviruses was also investigated. […]

HPV18 PsV = experiment: HPV pseudovirus luciferase assay in HeLa cells; assay type: cell-based; details: 72 h, FIG. 1C
Method: as §1, §2

HSV-2 G strain [2] = experiment: Plaque inhibition assay in Vero cells, inhibition of virus adsorption; assay type: cell-based; details: 4° C., plaque forming units, FIG. 2A
HIV-1MN (X4 virus) = experiment: MAGI assay in TZM-bl cells, anti-HIV activity; assay type: cell-based; details: 72 h, FIG. 1A
Method: as §1
(§3) The activity of GRFT against HIV was verified in standard in vitro assays. […]

HIV-1ADA-M (R5 virus) = experiment: MAGI assay in TZM-bl cells, anti-HIV activity; assay type: cell-based; details: 72 h, FIG. 1A
Method: as §1, §3

HSV-2 G strain [3] = experiment: Plaque inhibition assay in Vero cells, inhibition of virus entry; assay type: cell-based; details: 4° C. then 37° C. 2 h, citric acid buffer, FIG. 2B
HIV-1NL4-3 = experiment: Anti-HIV activity in PBMC, p24 ELISA; assay type: cell-based; details: activated PBMC, p24 ELISA day 7, FIG. 1B
Method: as §1
Anti-HIV activity was also tested in peripheral blood mononucleated cells (PBMC) using the laboratory strains HIV-1NL4-3 according to conventional methods. See Trkola A, et al., J Virol. 1999 November; 73(11):8966-74. […]

Compound: CC(=O)[O-].CC(=O)[O-].[Zn+2] [ZA, zinc acetate]
- IC50 (95% confidence interval) (HSV-2 G strain [1]): 58.2 µg/mL
- IC50 (HIV-192BR014): 48.3 µM

Compound: CC(=O)[O-].CC(=O)[O-].[Cd+2] [cadmium acetate]
- HIV-1 production (HIV-1): inhibited HIV-1 production

Compound: [Cl][Hg][Cl] [mercury chloride]
- HIV-1 production (HIV-1): inhibited HIV-1 production

Compound: [Cl-].[Cl-].[Zn+2] [zinc chloride]
- HIV-1 production (HIV-1): inhibited HIV-1 production

Compound: Griffithsin [GRFT]
- in vitro activity against HPV16 PsV (HPV16 PsV; HeLa cells, luciferase assay, 72 h, FIG. 1C): moderate in vitro activity
- IC50 (HPV16 PsV; HeLa, HPV16 PsV, luciferase 72 h, combination value refers to the API in bold font, read-out: Dm, median-effect dose (IC50)): 32.7 µM
- in vitro activity against HPV45 PsV (HPV45 PsV): moderate in vitro activity
- in vitro activity against HPV18 PsV (HPV18 PsV): moderate in vitro activity
- IC50 (95% confidence interval) (HSV-2 G strain [1]): 19 µg/mL
- inhibition of virus adsorption (HSV-2 G strain [2]): does not prevent viral adsorption
- IC50 (HIV-192BR014): 0.0004 µM
- anti-HIV activity in vitro (HIV-1MN (X4 virus)): potent anti-HIV activity
- anti-HIV activity in vitro (HIV-1ADA-M (R5 virus)): potent anti-HIV activity
- inhibition of virus entry (HSV-2 G strain [3]): prevents HSV-2 entry
- anti-HIV activity in vitro (HIV-1NL4-3): potent anti-HIV activity
